Key:
Assay type in all cases: in vivo
corn (Zea mays) = experiment: Test A postemergence, corn; details: 0 to 100 scale; for Plant response rating, Corn: 0 no effect, 100 complete control; for Corn plant response rating: 0 is no effect, 100 is complete control
In short: (§1)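 0–100 visual control rating, ~10 d post-treatment, greenhouse. Pre = directed soil spray on seeded loam/sand; post = spray at 1–2 leaf stage. Surfactant-containing solvent formulation.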

[1] = system: foxtail, giant (Setaria faberii); experiment: Test A preemergence, giant foxtail; details: 0 to 100 scale, 0 is no effect, 100 is complete control
In short: as §1

[2] = system: ragweed (common ragweed, Ambrosia elatior); experiment: Test A preemergence, ragweed; details: 0 to 100 scale, 0 is no effect, 100 is complete control
In short: as §1

[3] = system: wheat (Triticum aestivum); experiment: Test A postemergence, wheat; details: 0 to 100 scale; for Plant response rating, Wheat: 0 no effect, 100 complete control; for Wheat plant response rating: 0 is no effect, 100 is complete control
In short: as §1

[4] = system: barnyardgrass (Echinochloa crus-galli); experiment: Test A preemergence, barnyardgrass; details: 0 to 100 scale, 0 is no effect, 100 is complete control
In short: as §1

[5] = system: ryegrass, Italian (Lolium multiflorum); experiment: Test A preemergence, Italian ryegrass; details: 0 to 100 scale, 0 is no effect, 100 is complete control
In short: as §1

[6] = system: pigweed (Amaranthus retroflexus); experiment: Test A postemergence, pigweed; details: 0 to 100 scale; for Plant response rating, Pigweed: 0 no effect, 100 complete control; for Pigweed plant response rating: 0 is no effect, 100 is complete control
In short: as §1

[7] = system: foxtail, giant (Setaria faberii); experiment: Test A postemergence, giant foxtail; details: 0 to 100 scale; for Plant response rating, Foxtail, Giant: 0 no effect, 100 complete control; for Foxtail, Giant plant response rating: 0 is no effect, 100 is complete control
In short: as §1

kochia (Kochia scoparia) [8] = experiment: Test A preemergence, kochia; details: 0 to 100 scale, 0 is no effect, 100 is complete control
In short: as §1

[9] = system: barnyardgrass (Echinochloa crus-galli); experiment: Test B flooded paddy test, barnyardgrass; details: Flood, 250 g ai/ha, applied to paddy water, 2-leaf stage, visual evaluation after 13 to 15 d
In short: (§2)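 Plants grown to 2-leaf stage. Compounds applied directly into paddy water flooded 3 cm above soil, with that depth kept throughout. After 13–15 d in greenhouse, visual rating versus controls on a 0–100 scale (0 no effect, 100 complete control).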

[10] = system: pigweed (Amaranthus retroflexus); experiment: Test A preemergence, pigweed; details: 0 to 100 scale, 0 is no effect, 100 is complete control
In short: as §1

kochia (Kochia scoparia) [11] = experiment: Test A postemergence, kochia; details: 0 to 100 scale; for Plant response rating, Kochia: 0 no effect, 100 complete control; for Kochia plant response rating: 0 is no effect, 100 is complete control
In short: as §1

[12] = system: ryegrass, Italian (Lolium multiflorum); experiment: Test A postemergence, Italian ryegrass; details: 0 to 100 scale; for Plant response rating, Ryegrass, Italian: 0 no effect, 100 complete control; for Ryegrass, Italian plant response rating: 0 is no effect, 100 is complete control
In short: as §1

[13] = system: ragweed (common ragweed, Ambrosia elatior); experiment: Test A postemergence, ragweed; details: 0 to 100 scale; for Plant response rating, Ragweed: 0 no effect, 100 complete control; for Ragweed plant response rating: 0 is no effect, 100 is complete control
In short: as §1

[14] = system: ducksalad (Heteranthera limosa); experiment: Test B flooded paddy test, ducksalad; details: Flood, 250 g ai/ha, applied to paddy water, 2-leaf stage, visual evaluation after 13 to 15 d
In short: as §2

[15] = system: blackgrass (Alopecurus myosuroides); experiment: Test A postemergence, blackgrass; details: 0 to 100 scale; for Plant response rating, Blackgrass: 0 no effect, 100 complete control; for Blackgrass plant response rating: 0 is no effect, 100 is complete control
In short: as §1

rice (Oryza sativa) = experiment: Test B flooded paddy test, rice; details: Flood, 250 g ai/ha, applied to paddy water, 2-leaf stage, visual evaluation after 13 to 15 d
In short: as §2

[16] = system: sedge, umbrella (small-flower umbrella sedge, Cyperus difformis); experiment: Test B flooded paddy test, umbrella sedge; details: Flood, 250 g ai/ha, applied to paddy water, 2-leaf stage, visual evaluation after 13 to 15 d
In short: as §2

[17] = system: galium (catchweed bedstraw, Galium aparine); experiment: Test A postemergence, galium; details: 0 to 100 scale; for Plant response rating, Galium: 0 no effect, 100 complete control; for Galium plant response rating: 0 is no effect, 100 is complete control
In short: as §1

[18] = system: barnyardgrass (Echinochloa crus-galli); experiment: Test A postemergence, barnyardgrass; details: 0 to 100 scale; for Plant response rating, Barnyardgrass: 0 no effect, 100 complete control; for Barnyardgrass plant response rating: 0 is no effect, 100 is complete control
In short: as §1

Structure (SMILES) | Plant response rating, Corn (corn (Zea mays); 125 g ai/ha) | Foxtail, Giant plant response rating ([1]; 125 g ai/ha) | Foxtail, Giant plant response rating ([1]; 500 g ai/ha) | Ragweed plant response rating ([2]; 125 g ai/ha) | Ragweed plant response rating ([2]; 500 g ai/ha) | Plant response rating, Wheat ([3]; 125 g ai/ha) | Barnyardgrass plant response rating ([4]; 125 g ai/ha) | Barnyardgrass plant response rating ([4]; 500 g ai/ha) | Ryegrass, Italian plant response rating ([5]; 125 g ai/ha) | Ryegrass, Italian plant response rating ([5]; 500 g ai/ha) | Plant response rating, Pigweed ([6]; 125 g ai/ha) | Plant response rating, Foxtail, Giant ([7]; 125 g ai/ha) | Kochia plant response rating (kochia (Kochia scoparia) [8]; 125 g ai/ha) | Kochia plant response rating (kochia (Kochia scoparia) [8]; 500 g ai/ha) | Plant response rating, Barnyardgrass (0 to 100 scale, 0 is no effect, 100 is complete control) [9] | Pigweed plant response rating ([10]; 125 g ai/ha) | Pigweed plant response rating ([10]; 500 g ai/ha) | Plant response rating, Kochia (kochia (Kochia scoparia) [11]; 125 g ai/ha) | Plant response rating, Ryegrass, Italian ([12]; 125 g ai/ha) | Plant response rating, Ragweed ([13]; 125 g ai/ha) | other results
C[C@H](Nc1ncc(C(F)(F)F)c(N)n1)c1cc2ccc(F)cc2s1 [Compound 47] | 0 | 0 | 0 | 0 | 0 | 0 | 0 | 0 | 0 | 0 | 20 | 0 | 0 | 0 | 0 | 0 | 30 | 0 | 0 | 0 | Corn plant response rating (corn (Zea mays); 500 g ai/ha): 0; Wheat plant response rating ([3]; 500 g ai/ha): 0; Pigweed plant response rating ([6]; 500 g ai/ha): 80; Foxtail, Giant plant response rating ([7]; 500 g ai/ha): 0; Kochia plant response rating (kochia (Kochia scoparia) [11]; 500 g ai/ha): 60; Ryegrass, Italian plant response rating ([12]; 500 g ai/ha): 0; Ragweed plant response rating ([13]; 500 g ai/ha): 0; Plant response rating, Ducksalad (0 to 100 scale, 0 is no effect, 100 is complete control) [14]: 0; Plant response rating, Blackgrass ([15]; 125 g ai/ha): 0; Blackgrass plant response rating ([15]; 500 g ai/ha): 30; Plant response rating, Rice (0 to 100 scale, 0 is no effect, 100 is complete control) (rice (Oryza sativa)): 0; Plant response rating, Sedge, Umbrella (0 to 100 scale, 0 is no effect, 100 is complete control) [16]: 0; Plant response rating, Galium ([17]; 125 g ai/ha): 0; Galium plant response rating ([17]; 500 g ai/ha): 0; Plant response rating, Barnyardgrass ([18]; 125 g ai/ha): 0; Barnyardgrass plant response rating ([18]; 500 g ai/ha): 0
CC[C@@H](Nc1ncc(C(F)(F)F)c(N)n1)c1cc2ccc(F)cc2s1 [Compound 48] | 0 | 60 | 90 | 30 | 100 | 0 | 0 | 40 | 0 | 60 | 90 | 10 | 0 | 80 | 0 | 60 | 100 | 30 | 0 | 20 | Corn plant response rating (corn (Zea mays); 500 g ai/ha): 30; Wheat plant response rating ([3]; 500 g ai/ha): 0; Pigweed plant response rating ([6]; 500 g ai/ha): 100; Foxtail, Giant plant response rating ([7]; 500 g ai/ha): 30; Kochia plant response rating (kochia (Kochia scoparia) [11]; 500 g ai/ha): 90; Ryegrass, Italian plant response rating ([12]; 500 g ai/ha): 40; Ragweed plant response rating ([13]; 500 g ai/ha): 70; Plant response rating, Ducksalad (0 to 100 scale, 0 is no effect, 100 is complete control) [14]: 0; Plant response rating, Blackgrass ([15]; 125 g ai/ha): 30; Blackgrass plant response rating ([15]; 500 g ai/ha): 30; Plant response rating, Rice (0 to 100 scale, 0 is no effect, 100 is complete control) (rice (Oryza sativa)): 0; Plant response rating, Sedge, Umbrella (0 to 100 scale, 0 is no effect, 100 is complete control) [16]: 0; Plant response rating, Galium ([17]; 125 g ai/ha): 60; Galium plant response rating ([17]; 500 g ai/ha): 90; Plant response rating, Barnyardgrass ([18]; 125 g ai/ha): 0; Barnyardgrass plant response rating ([18]; 500 g ai/ha): 30
CC[C@H](Nc1ncc(C(F)(F)F)c(N)n1)c1cc2ccc(F)cc2s1 [Compound 49] | 0 | 0 | 0 | 0 | 0 | 0 | 0 | 0 | 0 | 0 | 0 | 0 | 0 | 0 | 0 | 0 | 0 | 0 | 0 | 0 | Corn plant response rating (corn (Zea mays); 500 g ai/ha): 0; Wheat plant response rating ([3]; 500 g ai/ha): 0; Pigweed plant response rating ([6]; 500 g ai/ha): 50; Foxtail, Giant plant response rating ([7]; 500 g ai/ha): 10; Kochia plant response rating (kochia (Kochia scoparia) [11]; 500 g ai/ha): 0; Ryegrass, Italian plant response rating ([12]; 500 g ai/ha): 0; Ragweed plant response rating ([13]; 500 g ai/ha): 0; Plant response rating, Ducksalad (0 to 100 scale, 0 is no effect, 100 is complete control) [14]: 0; Plant response rating, Blackgrass ([15]; 125 g ai/ha): 0; Blackgrass plant response rating ([15]; 500 g ai/ha): 0; Plant response rating, Rice (0 to 100 scale, 0 is no effect, 100 is complete control) (rice (Oryza sativa)): 0; Plant response rating, Sedge, Umbrella (0 to 100 scale, 0 is no effect, 100 is complete control) [16]: 0; Plant response rating, Galium ([17]; 125 g ai/ha): 0; Galium plant response rating ([17]; 500 g ai/ha): 0; Plant response rating, Barnyardgrass ([18]; 125 g ai/ha): 0; Barnyardgrass plant response rating ([18]; 500 g ai/ha): 0
CC(C)[C@@H](Nc1ncc(C(F)(F)F)c(N)n1)c1cc2ccccc2s1 [Compound 50] | 0 | 0 | 10 | 0 | 0 | 0 | 0 | 10 | 0 | 0 | 60 | 0 | 40 | 60 | 0 | 0 | 40 | 20 | 30 | 0 | Corn plant response rating (corn (Zea mays); 500 g ai/ha): 10; Wheat plant response rating ([3]; 500 g ai/ha): 0; Pigweed plant response rating ([6]; 500 g ai/ha): 90; Foxtail, Giant plant response rating ([7]; 500 g ai/ha): 40; Kochia plant response rating (kochia (Kochia scoparia) [11]; 500 g ai/ha): 60; Ryegrass, Italian plant response rating ([12]; 500 g ai/ha): 0; Ragweed plant response rating ([13]; 500 g ai/ha): 30; Plant response rating, Ducksalad (0 to 100 scale, 0 is no effect, 100 is complete control) [14]: 0; Plant response rating, Blackgrass ([15]; 125 g ai/ha): 0; Blackgrass plant response rating ([15]; 500 g ai/ha): 0; Plant response rating, Rice (0 to 100 scale, 0 is no effect, 100 is complete control) (rice (Oryza sativa)): 0; Plant response rating, Sedge, Umbrella (0 to 100 scale, 0 is no effect, 100 is complete control) [16]: 0; Plant response rating, Galium ([17]; 125 g ai/ha): 10; Galium plant response rating ([17]; 500 g ai/ha): 20; Plant response rating, Barnyardgrass ([18]; 125 g ai/ha): 0; Barnyardgrass plant response rating ([18]; 500 g ai/ha): 0
C[C@@H](Nc1ncc(C(F)(F)F)c(N)n1)c1coc2cc(Cl)ccc12 [Compound 55] | 10 | 50 | 90 | 100 | 100 | 0 | 80 | 80 | 20 | 70 | 100 | 20 | 40 | 90 | 30 | 80 | 100 | 70 | 30 | 50 | Plant response rating, Corn (corn (Zea mays); 500 g ai/ha): 0; Plant response rating, Wheat ([3]; 500 g ai/ha): 0; Plant response rating, Pigweed ([6]; 500 g ai/ha): 100; Plant response rating, Foxtail, Giant ([7]; 500 g ai/ha): 90; Plant response rating, Kochia (kochia (Kochia scoparia) [11]; 500 g ai/ha): 90; Plant response rating, Ryegrass, Italian ([12]; 500 g ai/ha): 30; Plant response rating, Ragweed ([13]; 500 g ai/ha): 80; Plant response rating, Ducksalad (0 to 100 scale, 0 is no effect, 100 is complete control) [14]: 70; Plant response rating, Blackgrass ([15]; 125 g ai/ha): 0; Plant response rating, Blackgrass ([15]; 500 g ai/ha): 20; Plant response rating, Rice (0 to 100 scale, 0 is no effect, 100 is complete control) (rice (Oryza sativa)): 0; Plant response rating, Sedge, Umbrella (0 to 100 scale, 0 is no effect, 100 is complete control) [16]: 98; Plant response rating, Galium ([17]; 125 g ai/ha): 70; Plant response rating, Galium ([17]; 500 g ai/ha): 90; Plant response rating, Barnyardgrass ([18]; 125 g ai/ha): 30; Plant response rating, Barnyardgrass ([18]; 500 g ai/ha): 70

From patent US20220119354A1, “DIAMINO-SUBSTITUTED PYRIDINES AND PYRIMIDINES AS HERBICIDES” (FMC Corporation, priority 2019, published 2022)
